Activity calls are given as the source filed them. The rule behind the calls is not given here.
Experiments:
A-375 [1] = experiment: Antiproliferative activity against human A375 cells assessed as cell viability at 5 uM after 48 hrs by trypan blue exclusion assay; type: functional; conditions: A-375, 48 h, read-out: Activity
A-375 [2] = experiment: Antiproliferative activity against human A375 cells assessed as cell viability at 10 uM after 48 hrs by trypan blue exclusion assay; type: functional; conditions: A-375, 48 h, read-out: Activity
A-375 [3] = experiment: Antiproliferative activity against human A375 cells assessed as cell viability at 1 uM after 48 hrs by trypan blue exclusion assay; type: functional; conditions: for viability at 1 µM: A-375, 48 h, read-out: Activity
BXPC-3 = experiment: Growth inhibition of human BxPC3 cells assessed as cell viability at 10 uM after 48 hrs by trypan blue exclusion assay; type: functional; conditions: BXPC-3, 48 h, read-out: Activity
[4] = Growth inhibition of human A375 RIV cells assessed as cell viability at 10 uM after 48 hrs by trypan blue exclusion assay; type: functional; conditions: A-375, 48 h, read-out: Activity
K-562R = experiment: Growth inhibition of human K562R cells assessed as cell viability at 10 uM after 48 hrs by trypan blue exclusion assay; type: functional; conditions: read-out: Activity
K562 = experiment: Growth inhibition of human K562 cells assessed as cell viability at 10 uM after 48 hrs by trypan blue exclusion assay; type: functional; conditions: K562, 48 h, read-out: Activity
MIA PaCa-2 = experiment: Growth inhibition of gemcitabine-resistant human MIAPaCa2 cells assessed as cell viability at 10 uM after 48 hrs by trypan blue exclusion assay relative to control; type: functional; conditions: MIA PaCa-2, 48 h, read-out: Activity
[5] = Growth inhibition of human A375 R5C3 cells assessed as cell viability at 10 uM after 48 hrs by trypan blue exclusion assay; type: functional; conditions: A-375, 48 h, read-out: Activity
A-375 [6] = experiment: Antiproliferative activity against human A375 cells after 48 hrs by trypan blue exclusion assay; type: functional, cell-based; conditions: A-375, 48 h
A-375 [7] = experiment: Induction of autophagy in human A375 cells assessed as increase in conversion of LC3-I to LC3-II at 1 to 2.5 uM after 48 hrs by Western blot analysis; type: functional, cell-based
A-375 [8] = experiment: Induction of autophagy in human A375 cells assessed as increase in conversion of LC3-I to LC3-II at 2.5 to 10 uM after 12 hrs by Western blot analysis; type: functional, cell-based
[9] = target: T1, Eukaryotic translation initiation factor 2-alpha kinase 3 (Homo sapiens) (UniProt Q9NZJ5); experiment: Activation of PERK in human A375 cells at 2.5 to 10 uM after 12 hrs by Western blot analysis; type: cell-based
T1 sequence (whole entry): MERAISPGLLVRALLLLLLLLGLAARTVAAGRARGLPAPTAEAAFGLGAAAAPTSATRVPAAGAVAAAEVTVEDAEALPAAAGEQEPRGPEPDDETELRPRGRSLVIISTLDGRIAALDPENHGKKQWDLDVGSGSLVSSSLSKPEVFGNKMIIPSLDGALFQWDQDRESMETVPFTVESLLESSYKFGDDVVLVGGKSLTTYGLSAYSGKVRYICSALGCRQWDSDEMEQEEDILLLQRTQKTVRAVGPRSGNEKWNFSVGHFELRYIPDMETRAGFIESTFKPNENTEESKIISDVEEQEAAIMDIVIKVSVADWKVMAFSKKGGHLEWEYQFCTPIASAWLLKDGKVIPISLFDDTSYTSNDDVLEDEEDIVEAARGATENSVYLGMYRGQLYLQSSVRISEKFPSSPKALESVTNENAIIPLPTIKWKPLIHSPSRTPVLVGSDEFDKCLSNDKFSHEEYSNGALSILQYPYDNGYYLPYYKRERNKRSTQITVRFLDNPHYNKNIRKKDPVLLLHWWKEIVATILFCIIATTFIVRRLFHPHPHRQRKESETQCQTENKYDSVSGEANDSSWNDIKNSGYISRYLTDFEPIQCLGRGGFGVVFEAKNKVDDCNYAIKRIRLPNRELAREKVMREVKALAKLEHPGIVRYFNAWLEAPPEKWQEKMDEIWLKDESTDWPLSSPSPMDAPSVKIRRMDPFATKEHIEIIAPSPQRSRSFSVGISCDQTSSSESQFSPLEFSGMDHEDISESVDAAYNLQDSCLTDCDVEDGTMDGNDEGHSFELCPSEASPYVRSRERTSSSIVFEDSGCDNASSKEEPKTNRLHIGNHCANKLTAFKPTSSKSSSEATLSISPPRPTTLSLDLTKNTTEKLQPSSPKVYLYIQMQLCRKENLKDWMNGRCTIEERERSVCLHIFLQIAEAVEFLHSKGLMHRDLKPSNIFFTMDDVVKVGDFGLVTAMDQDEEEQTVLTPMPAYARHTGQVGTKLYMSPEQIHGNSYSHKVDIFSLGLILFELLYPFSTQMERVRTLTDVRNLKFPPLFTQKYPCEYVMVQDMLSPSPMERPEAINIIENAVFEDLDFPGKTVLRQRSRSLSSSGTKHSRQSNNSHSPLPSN

A-375 [10] = experiment: Induction of autophagy in human A375 cells assessed as increase in conversion of LC3-I to LC3-II at 1 to 5 uM after 24 hrs by Western blot analysis; type: functional, cell-based
A-375 [11] = experiment: Induction of apoptosis in human A375 cells assessed as cleavage of PARP protein at 2.5 to 10 uM after 12 hrs by Western blot analysis; type: functional, cell-based
[12] = target: T1, Eukaryotic translation initiation factor 2-alpha kinase 3 (Homo sapiens); experiment: Activation of PERK in human A375 cells at 1 to 2.5 uM after 48 hrs by Western blot analysis; type: cell-based
[13] = target: T1, Eukaryotic translation initiation factor 2-alpha kinase 3 (Homo sapiens); experiment: Activation of PERK in human A375 cells assessed as increase in CHOP expression at 1 to 2.5 uM after 48 hrs by Western blot analysis; type: cell-based
[14] = target: T1, Eukaryotic translation initiation factor 2-alpha kinase 3 (Homo sapiens); experiment: Activation of PERK in human A375 cells assessed as increase in CHOP expression at 2.5 to 10 uM after 12 hrs by Western blot analysis; type: cell-based

SMILES	viability at 5 µM (A-375 [1])	viability at 10 µM (A-375 [2])	viability at 1 µM (A-375 [3])	also measured
CC(=O)Nc1nc(-c2cccc(NS(=O)(=O)c3ccc(C#C[Si](C)(C)C)cc3)c2)cs1	4.2%	< 1%	94.3%	–
CC(=O)Nc1nc(-c2cccc(NS(=O)(=O)c3cccc(Br)c3)c2)cs1	67.4%	36%	–	Activity (A-375 [3]): inactive
CCCCCCC#Cc1ccc(S(=O)(=O)Nc2cccc(-c3csc(NC(C)=O)n3)c2)cc1	12.8%	5.8%	40.7%	–
C#Cc1ccc(S(=O)(=O)Nc2cccc(-c3csc(NC(C)=O)n3)c2)cc1	38.3%	1.2%	59.2%	–
C#Cc1cccc(S(=O)(=O)Nc2cccc(-c3csc(NC(C)=O)n3)c2)c1	29%	18.6%	74.3%	–
CC(=O)Nc1nc(-c2cccc(NS(=O)(=O)c3ccc(Br)cc3)c2)cs1	19.7%	25.6%	–	Activity (A-375 [3]): inactive
CCCCCC/C=C\c1ccc(S(=O)(=O)Nc2cccc(-c3csc(NC(C)=O)n3)c2)cc1	2.3%	–	48.8%	viability at 10 µM (BXPC-3): 2%; viability at 10 µM [4]: < 1%; viability at 10 µM (K-562R): 41.1%; viability at 10 µM (K562): 8.9%; viability at 10 µM (MIA PaCa-2): 11.4%; viability at 10 µM [5]: < 1%
CCCCCCCCC#Cc1ccc(S(=O)(=O)Nc2cccc(-c3csc(NC(C)=O)n3)c2)cc1	8.9%	< 1%	39.6%	–
CCCCCCC#Cc1ccc(S(=O)(=O)Nc2cccc(-c3csc(NC)n3)c2)cc1	8.1%	1.2%	36.6%	–
CCCCCCc1ccc(S(=O)(=O)Nc2cccc(-c3csc(NC(C)=O)n3)c2)cc1	< 1%	–	49.9%	viability at 10 µM (BXPC-3): 5.9%; viability at 10 µM [4]: 3.4%; viability at 10 µM (K-562R): 41.6%; viability at 10 µM (K562): 23.2%; viability at 10 µM (MIA PaCa-2): 1.3%; viability at 10 µM [5]: 1.4%
CC(=O)Nc1nc(-c2cccc(NS(=O)(=O)c3cccc(C#C[Si](C)(C)C)c3)c2)cs1	< 1%	5.8%	61.6%	–
CC(=O)Nc1nc(-c2cccc(NS(=O)(=O)c3ccc(C#CCO)cc3)c2)cs1	99.3%	48.8%	81.3%	EC50 (A-375 [6]): 10 µM
CCCCCCC#Cc1cccc(S(=O)(=O)Nc2cccc(-c3csc(NC(C)=O)n3)c2)c1	1.2%	< 1%	56.9%	–
CC(=O)Nc1nc(-c2cccc(NS(=O)(=O)c3ccc(C#CC4CCCCC4)cc3)c2)cs1	1.2%	1.2%	52.3%	–
CCCCCCC#Cc1ccc(S(=O)(=O)Nc2cccc(-c3csc(N)n3)c2)cc1	< 1%	3.5%	97.6%	–
CCCCCCC#Cc1ccc(S(=O)(=O)Nc2cccc(-c3csc(Nc4ccccc4)n3)c2)cc1	59.2%	5.8%	87.1%	–
CCCCC#Cc1ccc(S(=O)(=O)Nc2cccc(-c3csc(NC(C)=O)n3)c2)cc1	9.3%	< 1%	73.2%	–
CC(=O)Nc1nc(-c2cccc(NS(=O)(=O)c3cccc(C#CCO)c3)c2)cs1	66.2%	45.3%	85.4%	EC50 (A-375 [6]): 10 µM
CCCCCCCCc1ccc(S(=O)(=O)Nc2cccc(-c3csc(NC(C)=O)n3)c2)cc1	< 1%	< 1%	34.8%	Activity (A-375 [7]): Active; viability at 10 µM (BXPC-3): 4.9%; Activity (A-375 [8]): Active; Activity [9]: Active; viability at 10 µM [4]: 2.6%; viability at 10 µM (K-562R): 10.1%; Activity (A-375 [10]): Active; viability at 10 µM (K562): 3.8%; Activity (A-375 [11]): Active; Activity [12]: Active; viability at 10 µM (MIA PaCa-2): 11.4%; viability at 10 µM [5]: 1.4%; Activity [13]: Active; Activity [14]: Active
CC(=O)Nc1nc(-c2cccc(NS(=O)(=O)c3ccc(C#CCCc4ccccc4)cc3)c2)cs1	4.2%	< 1%	11.5%	–

Source: ChEMBL document CHEMBL4038290, “Structure activity relationship and optimization of N-(3-(2-aminothiazol-4-yl)aryl)benzenesulfonamides as anti-cancer compounds against sensitive and resistant cells” (Bioorg Med Chem Lett, 2017)
